Consider 4 molecules from US9034403B2, “Yeast extract containing γ-Glu-X or γ-Glu-X-Gly and a method for producing the same” (AJINOMOTO CO., INC., priority 2010, dated 2015).

Structures are written as SMILES. Numbered stars: 1 amine (or outer) side, 2 acyl side, 3 side chain; on linkers, the order of the positions; unused ones are H or OH. Square brackets hold non-standard residues; d marks the D form. Peptide text beside a SMILES is read from it. γGlu = O=C(O)[C@H](CCC(=O)[*:2])N[*:1]; Nva = CCC[C@H](N)C(=O)O

The test system of assay [1] is GSH1 overexpressing strain AG1. The experiment in a line: Addition of nVal to GSH1 overexpressing strain AG1, γ-Glu-nVal content. Type of assay: cell-based, Saccharomyces cerevisiae. Particulars: for γ-Glu-nVal content: culture continued 1 hour. As to the method:
Then, this AG1 strain was cultivated in SD medium supplemented with nVal. More specifically, one loop of the AG1 strain was inoculated into SD medium (50 ml in a 500 ml-volume Sakaguchi flask), and cultured at 30° C. for 24 hours with shaking at a velocity of 120 rpm. Absorbance of the obtained culture broth was measured, and the culture broth was inoculated into SDP medium (400 ml in a 2 L-volume conical flask with baffle fins, two or more flasks) so that OD660 was 0.01 at the start of the culture, and culture was performed at 30° C. for 23 hours with shaking by rotation at a velocity of 120 rpm. After 23 hours, nVal solution was added to a final concentration of 10 ppm or 100 ppm, and the cultures were continued for 1 hour. Then, the amount of γ-Glu-nVal was measured in the same manner described in the experimental example 15. The γ-Glu-nVal content was 0.07% when 10 ppm of nVal was added to the medium and the γ-Glu-nVal content was 0.37% when 100 ppm of nVal was added to the medium. Then, yeast extract containing γ-Glu-nVal was prepared from the broth culture cultivated with 100 ppm nVal basically in the same manner as described in Example 16. This yeast extract contained 1.44% γ-Glu-nVal at the dry matter base. This yeast extract would give strong kokumi for initial and middle taste from its character.

Assay [2] relates to S288C, Y3560 and YEp24-PTDH3-GSH2 strains. The experiment in a line: Influence of YEp24-PTDH3-GSH2 on γ-EV to γ-EVG conversion. Type of assay: cell-based, Saccharomyces cerevisiae. Conditions: 18 hours. As to the method: Each of the S288C ura3Δ227/YEp24-PTDH3-GSH2, Y3560/YEp24-PTDH3-GSH2, S288C and Y3560 strains, was cultivated in 50-ml tubes containing 10 ml of SD medium with 100 ppm γ-Glu-Val as a final concentration. For Y3560 strain medium was also supplemented with uracil (20 mg/L). Tubes were inoculated by overnight culture of corresponding strain at initial OD600=0.01, and placed in rotation shaker at 240 rpm, 30° C. for 18 hours. Then cells from 2 ml of broth culture were harvested by centrifugation, and were washed by 1 ml of milliQ water three times. Then washed cells were suspended in 1 ml of milliQ and were incubated at 70° C. for 10 min with a water bath to extract intracellular materials. After cell debris and the extract were separated by centrifugation, aqueous phase was transferred to clean vial and then the vial was vacuum-dried. Thus the dried extract was prepared. Then γ-Glu-Val-Gly in the dried extract was measured with LC-MS/MS analysis as it is described in example 12.

The test system of assay [3] is GSH2 overexpressing strain PG2 and WT strain. The assay is described as follows: Addition of γ-Glu-Val to GSH2 overexpressing strain PG2 and WT strain, γ-Glu-Val-Gly content. The assay is classed as cell-based, Saccharomyces cerevisiae. The protocol:
GSH2 overexpressing strain PG2 was constructed basically in the same manner as described in Example 10 except that AJ14956 described in Example 19 was used instead of ura3Δ0 from S288C. As a control, WT strain was obtained by returning the deleted URA3 gene into wild type gene from AJ14956 in the same manner described in Example 10 and Example 19.
One loop of the WT strain or PG2 strain was inoculated into SD medium (50 ml in a 500 ml-volume Sakaguchi flask), and cultured at 30° C. for 24 hours with shaking at a velocity of 120 rpm. Absorbance of the obtained culture broth was measured, and the culture broth was inoculated into the SD medium supplemented with various concentrations of γ-Glu-Val (400 ml in a 2 L-volume conical flask with baffle fins, two or more flasks) so that OD660 was 0.01 at the start of the culture, and culture was performed at 30° C. with shaking by rotation at a velocity of 120 rpm until OD660 reached to the predetermined value. Then, the amount of γ-Glu-Val-Gly in dry cells and the solid content of the extracted extract were calculated in the same manner described previously. As shown in the results, PG2, a GSH2 overexpressing strain, took up γ-Glu-Val from the medium and converted it into γ-Glu-Val-Gly in the cell.

For assay [4], the system named is Saccharomyces cerevisiae S288C strain. The experiment in a line: Addition of peptide to medium of S288C strain; peptide content in dry cells and in extract by LC-MS/MS. The assay is classed as cell-based. As to the method:
Absorbance of the obtained culture broth was measured, the culture broth was inoculated into SD medium (400 ml in a 2 L-volume conical flask with baffle fins, a pluratity of flasks) so that OD660 was 0.01 at the start of the culture (absorbance was measured by using DU640 SPECTROPHTOMETER, BECKMAN COULTER), and culture was performed at 30° C. for 19 hours with shaking by rotation at a velocity of 120 rpm. From the obtained culture broth, 400 OD units of the cells (1 OD unit is defined as cells contained in 1 ml of culture broth of which OD660 is 1) were collected by centrifugal separation. The supernatant was removed as much as possible, and the residual cells were suspended in 45 ml of Milli-Q water. The cells were collected again by centrifugal separation, and resuspended in 45 ml of Milli-Q water. By repeating this operation 3 times in total, the medium was completely removed from the cells. The washed cells were suspended in about 1.5 ml of Milli-Q water, and the suspension was heated at 70° C. for 10 minutes. By this step, the extractable components contained in the cells were extracted. Then, the extract and the cell residue were separated by centrifugation.
Cell debris were removed from the extract using a centrifugal filtration membrane of 10 kDa (Amicon Ultra—0.5 mL 10K, MILLIPORE, Catalogue Number UFC501096)), the obtained fraction was derivatized with the AQC reagent in the same manner as that used in Example 1, and γ-Glu-Val-Gly and γ-Glu-Val were measured by LC-MS/MS. Separately, the amount of GSH in the cells was measured in a conventional manner (GSH in the extract was derivatized by using a fluorescence reagent ABD-F that binds to thiol group, separated and quantified by HPLC). Furthermore, dry cell weight was measured after the washed cells were dried at 104° C. for 4 hours. From the amounts of γ-Glu-Val-Gly and γ-Glu-Val in the extract prepared from the cells that was contained in a certain volume of culture broth and dry cell weight measured as described above, the amount of these peptides based on weight of dried cells was calculated. […]
One loop of the S288C strain was inoculated into SD medium (50 ml in a 500 ml-volume Sakaguchi flask), and cultured at 30° C. for 24 hours with shaking at a velocity of 120 rpm. Absorbance of the obtained culture broth was measured, the culture broth was inoculated into SD medium (400 ml in a 2 L-volume conical flask with baffle fins, two or more flasks) so that OD660 was 0.01 at the start of the culture, and culture was performed at 30° C. for 19 hours with shaking by rotation at a velocity of 120 rpm. After 19 hours, γ-Glu-Val-Gly aqueous solutions of various concentrations were added to obtain predetermined concentrations, and the culture was continued for 1 hour. Using these culture broths, the γ-Glu-Val-Gly content in dry cells was calculated in the same manner as in Example 2. Furthermore, the solid content of the extract was calculated, and the amount of γ-Glu-Val-Gly in the solid content was also calculated. […]
The cells were collected from the total culture broth, and washed in the same manner as that of Example 2. The washed cells in an amount of 400 OD units were suspended in 1.5 ml of Milli-Q water. This suspension was maintained at 70° C. for 10 minutes to produce an extract from the yeast cells. Furthermore, the suspension was centrifuged to remove the cell residues and thereby collect only the extract. The γ-Glu-Val-Gly concentration of this extract (extract of addition experiment) was measured to be about 300 ppm, and solid content was about 1%. The γ-Glu-Val-Gly concentration in an extract prepared in the same way but without adding γ-Glu-Val-Gly to the culture broth (extract of no addition experiment) was below the quantitation limit, and solid content was about 1%.
One loop of the S288C strain was inoculated into SD medium (50 ml in a 500 ml-volume Sakaguchi flask), and cultured at 30° C. for 24 hours with shaking at a velocity of 120 rpm. […]

Assay [5] concerns S288C PADH1-HGT1 (Hgt1p overproducing strain) and S288C. The experiment in a line: Peptide uptake of Hgt1p overproducing strain and parental strain S288C, intracellular content on dry weight cell. The assay is classed as cell-based, Saccharomyces cerevisiae. Particulars: S288C PADH1-HGT1; γ-Glu-nVal-Gly 100 ppm added to the medium. The protocol:
One loop of the S288C strain was inoculated into SD medium (50 ml in a 500 ml-volume Sakaguchi flask), and cultured at 30° C. for 24 hours with shaking at a velocity of 120 rpm. Absorbance of the obtained culture broth was measured, the culture broth was inoculated into SD medium (400 ml in a 2 L-volume conical flask with baffle fins, two or more flasks) so that OD660 was 0.01 at the start of the culture, and culture was performed at 30° C. for 19 hours with shaking by rotation at a velocity of 120 rpm. After 19 hours, γ-Glu-Val-Gly aqueous solutions of various concentrations were added to obtain predetermined concentrations, and the culture was continued for 1 hour. Using these culture broths, the γ-Glu-Val-Gly content in dry cells was calculated in the same manner as in Example 2. Furthermore, the solid content of the extract was calculated, and the amount of γ-Glu-Val-Gly in the solid content was also calculated.
The S288C PADH1-HGT1, Hgt1p overproducing strain obtained in Example 12, and its parental strain S288C, were evaluated for their ability to take up γ-Glu-Val-Gly in the same manners as described in Example 4. The amount of γ-Glu-Val-Gly added into the medium was 100 ppm as a final concentration. As a result, intracellular content of γ-Glu-Val-Gly in S288C on the dry weight cell was about 0.9%, but intracellular content of γ-Glu-Val-Gly in S288C PADH1-HGT1 on the dry weight cell was about 4.9%.
S288C PADH1-HGT1, Hgt1p overproducing strain obtained in Example 12, and its parental strain S288C were evaluated for their γ-Glu-nVal-Gly uptake abilities in the same manners as described in Example 4 and Example 13. The amount of γ-Glu-nVal-Gly added to the medium was 100 ppm as a final concentration.

[6] abbreviates: PG2 strain, γ-Glu-Val in the medium 100 ppm, CT 21 hr.
Setting [7] is: PG2 strain, γ-Glu-Val in the medium 500 ppm, CT 21 hr.
Where [8] appears, read: WT strain, γ-Glu-Val in the medium 100 ppm, CT 19 hr.
The mark [9] stands for this setting: WT strain, γ-Glu-Val in the medium 500 ppm, CT 19 hr.
Setting [10] is: 25 ppm γ-Glu-Val added to medium after 19 hours, culture continued 1 hour.
Where [11] appears, read: 100 ppm γ-Glu-Val added to medium after 19 hours, culture continued 1 hour.
The mark [12] stands for this setting: 200 ppm γ-Glu-Val added to medium after 19 hours, culture continued 1 hour.
The mark [13] stands for this setting: γ-Glu-Val 100 ppm added to SD medium in advance, culture 24 hours.

Take `CCC[C@H](N)C(=O)O` [nVal, norvaline]: the figures for the γ-Glu-nVal content in assay [1] (10 ppm of nVal added after 23 hours) and in assay [1] (100 ppm of nVal added after 23 hours) were 0.07% and 0.37%, respectively. In assay [1] (yeast extract from broth culture cultivated with 100 ppm nVal), the “γ-Glu-nVal in yeast extract at the dry matter base” value came out at 1.44%.
`CC(C)[C@H](NC(=O)CC[C@H](N)C(=O)O)C(=O)O` [γ-Glu-Val]: the γ-EVG in assay [2] (strain S288C ura3Δ227/YEp24-PTDH3-GSH2, 100 ppm γ-Glu-Val in SD medium) was 705 μg 1^−1 OD600^−1; in assay [2] (strain S288C, 100 ppm γ-Glu-Val in SD medium), 6 μg 1^−1 OD600^−1; in assay [2] (strain Y3560/YEp24-PTDH3-GSH2, 100 ppm γ-Glu-Val in SD medium), 2039 μg 1^−1 OD600^−1; in assay [2] (strain Y3560, 100 ppm γ-Glu-Val in SD medium with uracil), 110 μg 1^−1 OD600^−1. Also, the “γ-Glu-Val-Gly content in dry cells” value in assay [3] (setting [6]) is given as 81 ppm; in assay [3] (setting [7]), 123 ppm; in assay [3] (setting [8]) it was 7 ppm; in assay [3] (setting [9]) it was 7 ppm. Also, the “γ-Glu-Val-Gly content in solid content of extract” value in assay [3] (setting [6]) worked out at 384 ppm; in assay [3] (setting [7]), 585 ppm; in assay [3] (setting [8]), 29 ppm; in assay [3] (setting [9]), 29 ppm. Further, the “γ-Glu-Val content in dry cells” value was 1468 ppm in assay [4] (setting [10]), 6369 ppm in assay [4] (setting [11]) and 10930 ppm in assay [4] (setting [12]). The “γ-Glu-Val content in solid content of extract” value is 8491 ppm in assay [4] (setting [10]), 27599 ppm in assay [4] (setting [11]) and 49474 ppm in assay [4] (setting [12]). In addition, the “γ-Glu-Val present in dry cells” value in assay [4] (setting [13]) is given as 7171 ppm. In addition, in assay [4] (setting [13]), the “γ-Glu-Val-Gly present in dry cells” value worked out at 20 ppm.
With `CCC[C@H](NC(=O)CC[C@H](N)C(=O)O)C(=O)NCC(=O)O` [γ-Glu-nVal-Gly] (γGlu-[Nva]-Gly-OH), the “intracellular content of γ-Glu-nVal-Gly on the dry weight cell” value in assay [5] is listed as “about 2.84%”. Besides, the “γ-Glu-nVal-Gly concentration of extract” value in assay [4] (50 ppm γ-Glu-nVal-Gly added after 19 hours, culture continued 1 hour, 400 OD units in 1.5 ml, solid content about 1%) was “about 100 ppm”. The “γ-Glu-nVal-Gly content in the dry cell” value in assay [4] (γ-Glu-nVal-Gly added into the medium at 10 ppm) was “about 0.07%”; in assay [4] (γ-Glu-nVal-Gly added into the medium at 100 ppm), “about 0.09%”.
Turning to `CCC[C@H](NC(=O)CC[C@H](N)C(=O)O)C(=O)O` [γ-Glu-nVal], the “γ-Glu-nVal content in the dry cell” value in assay [4] (γ-Glu-nVal added into the medium at 10 ppm) is reported as “about 0.03%”; in assay [4] (γ-Glu-nVal added into the medium at 100 ppm), “about 0.13%”.
